Measurements: PubChem BioAssay AID330 (DTP/NCI, 2004)
Where “and” joins values, the source holds several entries; their conditions need not be identical. Identical values can stand only once. Inconclusive results and toxic doses are left out.

System: P388 leukemia ip, CD2F1 mice, survival T/C
Experiment: NCI In Vivo Anticancer Drug Screen. Data for tumor model P388 Leukemia (intraperitoneal) in CD2F1 (CDF1) mice
Conditions: endpoint: median survival time, higher = longer survival
Summary of the method: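 Mice carrying the transplanted tumor received test compound or vehicle. Survival was recorded in each group, and the value is the treated-group measurement divided by that of the vehicle-treated control group.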

[1] = dose: 50.0 mg/kg/injection, schedule: Q01DX009 (ip), vehicle: other
[2] = dose: 100.0 mg/kg/injection, schedule: Q01DX009 (ip), vehicle: other
[3] = dose: 200.0 mg/kg/injection, schedule: Q01DX009 (ip), vehicle: other
[4] = dose: 50.0 mg/kg/injection, schedule: Q01DX005 (ip), vehicle: Klucel (hydroxypropylcellulose) (HPC)
[5] = dose: 100.0 mg/kg/injection, schedule: Q01DX005 (ip), vehicle: Klucel (hydroxypropylcellulose) (HPC)
[6] = dose: 200.0 mg/kg/injection, schedule: Q01DX005 (ip), vehicle: Klucel (hydroxypropylcellulose) (HPC)
[7] = dose: 100.0 mg/kg/injection, schedule: Q01DX001 (ip), vehicle: Klucel (hydroxypropylcellulose) (HPC)
[8] = dose: 100.0 mg/kg/injection, schedule: Q04DX003 (ip), vehicle: saline with Tween-80
[9] = dose: 50.0 mg/kg/injection, schedule: Q01DX009 (ip), vehicle: saline with Tween-80
[10] = dose: 30.0 mg/kg/injection, schedule: Q01DX005 (ip), vehicle: saline with Tween-80

## [Cl][Mn][Cl]
dose: 0.25 mg/kg/injection, schedule: Q01DX009 (ip), vehicle: saline
  T/C: 99 % of control
dose: 0.5 mg/kg/injection, schedule: Q01DX009 (ip), vehicle: saline
  T/C: 90 % of control and 97 % of control
dose: 1.0 mg/kg/injection, schedule: Q01DX009 (ip), vehicle: saline
  T/C: 100 % of control
dose: 2.0 mg/kg/injection, schedule: Q01DX009 (ip), vehicle: saline
  T/C: 88 % of control and 94 % of control
dose: 4.0 mg/kg/injection, schedule: Q01DX009 (ip), vehicle: suspension in saline
  T/C: 119 % of control
dose: 8.0 mg/kg/injection, schedule: Q01DX009 (ip), vehicle: saline
  T/C: 90 % of control
dose: 8.0 mg/kg/injection, schedule: Q01DX009 (ip), vehicle: suspension in saline
  T/C: 97 % of control
dose: 16.0 mg/kg/injection, schedule: Q01DX009 (ip), vehicle: saline
  T/C: 100 % of control
dose: 16.0 mg/kg/injection, schedule: Q01DX009 (ip), vehicle: suspension in saline
  T/C: 116 % of control
dose: 32.0 mg/kg/injection, schedule: Q01DX009 (ip), vehicle: suspension in saline
  T/C: 119 % of control
dose: 64.0 mg/kg/injection, schedule: Q01DX009 (ip), vehicle: saline
  T/C: 100 % of control and 106 % of control
dose: 64.0 mg/kg/injection, schedule: Q01DX009 (ip), vehicle: suspension in saline
  T/C: 97 % of control

## OC1CCCCCC2CC12 (configuration not stated) (tested in a mixture with another compound)
[1]
  T/C: 102 % of control
[2]
  T/C: 103 % of control
[3]
  T/C: 96 % of control

## O=C(OCC(Cl)(Cl)Cl)N1[C@@H]2C=C[C@@H](N1C(=O)OCC(Cl)(Cl)Cl)[C@@]13CCCC21O3 (some centres not stated)
[4]
  T/C: 103 % of control
[5]
  T/C: 105 % of control
[6]
  T/C: 103 % of control

## CCOC(=Nc1ccc(F)cc1)SC(c1ccccc1)(c1ccccc1)c1ccccc1
dose: 50.0 mg/kg/injection, schedule: Q01DX005 (ip), vehicle: saline with Tween-80
  T/C: 110 % of control
dose: 100.0 mg/kg/injection, schedule: Q01DX005 (ip), vehicle: saline with Tween-80
  T/C: 104 % of control
dose: 200.0 mg/kg/injection, schedule: Q01DX005 (ip), vehicle: saline with Tween-80
  T/C: 99 % of control

## CS(=O)(=O)OC1COC(c2ccccc2)OC1C1OC(c2ccccc2)OCC1OS(C)(=O)=O (configuration not stated)
[7]
  T/C: 92 % of control
dose: 200.0 mg/kg/injection, schedule: Q01DX001 (ip), vehicle: Klucel (hydroxypropylcellulose) (HPC)
  T/C: 101 % of control
dose: 400.0 mg/kg/injection, schedule: Q01DX001 (ip), vehicle: Klucel (hydroxypropylcellulose) (HPC)
  T/C: 99 % of control

## COC(=O)Nc1nc2ccc(C(=O)OC(C)C)cc2[nH]1
[8]
  T/C: 111 % of control and 116 % of control
dose: 200.0 mg/kg/injection, schedule: Q04DX003 (ip), vehicle: saline with Tween-80
  T/C: 118 % of control
dose: 800.0 mg/kg/injection, schedule: Q04DX003 (ip), vehicle: saline with Tween-80
  T/C: 155 % of control

## CB1NN=C(C)c2ccsc21
[9]
  T/C: 110 % of control

## COc1ccc2ccc(CO)cc2c1OC
dose: 25.0 mg/kg/injection, schedule: Q01DX009 (ip), vehicle: other
  T/C: 98 % of control
[1]
  T/C: 92 % of control
[2]
  T/C: 90 % of control
[3]
  T/C: 99 % of control
dose: 400.0 mg/kg/injection, schedule: Q01DX009 (ip), vehicle: other
  T/C: 90 % of control

## CCCC(C)C/C(C)=C/C(C)(C)C(CC(=O)N1CCOCC1)C(=O)O (configuration not stated)
dose: 25.0 mg/kg/injection, schedule: Q04DX003 (ip), vehicle: saline with Tween-80
  T/C: 100 % of control
dose: 50.0 mg/kg/injection, schedule: Q04DX003 (ip), vehicle: saline with Tween-80
  T/C: 100 % of control
[8]
  T/C: 100 % of control

## O=C(O)CCC1(CCC(=O)O)OCCO1.[Ag]
dose: 9.5 mg/kg/injection, schedule: Q01DX009 (ip), vehicle: saline sonified
  T/C: 100 % of control
dose: 19.0 mg/kg/injection, schedule: Q01DX009 (ip), vehicle: saline sonified
  T/C: 109 % of control
dose: 38.0 mg/kg/injection, schedule: Q01DX009 (ip), vehicle: saline sonified
  T/C: 86 % of control

## CN=C(N)N/N=C(\C)c1ccc2ccc3ccccc3c2c1
dose: 50.0 mg/kg/injection, schedule: Q04DX002 (ip), vehicle: saline with Tween-80
  T/C: 105 % of control

## COc1cc(C[C@@H]([C@@H](CO)Cc2ccc3c(c2)OCO3)[C@H](O)CO)cc(OC)c1OC
dose: 6.25 mg/kg/injection, schedule: Q04DX002 (ip), vehicle: acetone
  T/C: 103 % of control
dose: 12.5 mg/kg/injection, schedule: Q04DX002 (ip), vehicle: acetone
  T/C: 100 % of control
dose: 25.0 mg/kg/injection, schedule: Q04DX002 (ip), vehicle: acetone
  T/C: 100 % of control

## C=C(CBr)C(=O)OCC
dose: 7.5 mg/kg/injection, schedule: Q01DX005 (ip), vehicle: saline with Tween-80
  T/C: 103 % of control
dose: 15.0 mg/kg/injection, schedule: Q01DX005 (ip), vehicle: saline with Tween-80
  T/C: 88 % of control
[10]
  T/C: 103 % of control

## CC1=CC=CC(C)(C(Cl)Cl)C1=O (configuration not stated)
[9]
  T/C: 109 % of control
dose: 100.0 mg/kg/injection, schedule: Q01DX009 (ip), vehicle: saline with Tween-80
  T/C: 104 % of control
dose: 200.0 mg/kg/injection, schedule: Q01DX009 (ip), vehicle: saline with Tween-80
  T/C: 109 % of control

## COc1ccc(N2C(=O)CC(c3cc(OC)c(OC)c(OC)c3)CC2=O)cc1
[4]
  T/C: 94 % of control
[5]
  T/C: 89 % of control
[6]
  T/C: 90 % of control

## N#Cc1ccc(NC(=O)Nc2cccc(C#N)c2)cc1
[10]
  T/C: 100 % of control and 103 % of control
dose: 60.0 mg/kg/injection, schedule: Q01DX005 (ip), vehicle: saline with Tween-80
  T/C: 89 % of control and 92 % of control and 94 % of control
dose: 120.0 mg/kg/injection, schedule: Q01DX005 (ip), vehicle: saline with Tween-80
  T/C: 91 % of control and 94 % of control
dose: 240.0 mg/kg/injection, schedule: Q01DX005 (ip), vehicle: saline with Tween-80
  T/C: 94 % of control

## Cc1cc2cc(CN)ccc2n1C
[7]
  T/C: 103 % of control

## OC(CN1CCCCC1)c1ccc(/C=C/c2ccc(Cl)cc2)cc1 (configuration not stated)
dose: 6.25 mg/kg/injection, schedule: Q01DX009 (ip), vehicle: saline
  T/C: 100 % of control
dose: 12.5 mg/kg/injection, schedule: Q01DX009 (ip), vehicle: saline
  T/C: 95 % of control
dose: 25.0 mg/kg/injection, schedule: Q01DX009 (ip), vehicle: saline
  T/C: 96 % of control

## Cn1cc2c(=O)n(C)ncc2n1
dose: 60.0 mg/kg/injection, schedule: Q01DX005 (ip), vehicle: saline
  T/C: 100 % of control
dose: 120.0 mg/kg/injection, schedule: Q01DX005 (ip), vehicle: saline
  T/C: 109 % of control
dose: 240.0 mg/kg/injection, schedule: Q01DX005 (ip), vehicle: saline
  T/C: 100 % of control

## CN=C(N)N
dose: 50.0 mg/kg/injection, schedule: Q01DX001 (ip), vehicle: saline
  T/C: 100 % of control
dose: 100.0 mg/kg/injection, schedule: Q01DX001 (ip), vehicle: saline
  T/C: 98 % of control
dose: 200.0 mg/kg/injection, schedule: Q01DX001 (ip), vehicle: saline
  T/C: 100 % of control
dose: 400.0 mg/kg/injection, schedule: Q01DX001 (ip), vehicle: saline
  T/C: 101 % of control

## CCOC(=O)C1=C(c2ccccc2)N(C)c2ccccc2S1
dose: 60.0 mg/kg/injection, schedule: Q01DX005 (ip), vehicle: saline + Tween-80 + alcohol
  T/C: 100 % of control
dose: 120.0 mg/kg/injection, schedule: Q01DX005 (ip), vehicle: saline + Tween-80 + alcohol
  T/C: 103 % of control
dose: 240.0 mg/kg/injection, schedule: Q01DX005 (ip), vehicle: saline + Tween-80 + alcohol
  T/C: 100 % of control

## O=c1[nH]c(=S)ccn1C1OC(CO)C(O)C1O (configuration not stated)
dose: 50.0 mg/kg/injection, schedule: Q01DX009 (ip), vehicle: saline
  T/C: 97 % of control
dose: 100.0 mg/kg/injection, schedule: Q01DX009 (ip), vehicle: saline
  T/C: 101 % of control
dose: 200.0 mg/kg/injection, schedule: Q01DX009 (ip), vehicle: saline
  T/C: 93 % of control

## COc1cc2cc3c4cc(OC)c(OC)cc4cc(C)[n+]3cc2cc1OC
dose: 12.5 mg/kg/injection, schedule: Q01DX009 (ip), vehicle: water
  T/C: 155 % of control
dose: 25.0 mg/kg/injection, schedule: Q01DX009 (ip), vehicle: water
  T/C: 180 % of control
dose: 50.0 mg/kg/injection, schedule: Q01DX009 (ip), vehicle: water
  T/C: 170 % of control
dose: 100.0 mg/kg/injection, schedule: Q01DX009 (ip), vehicle: water
  T/C: 163 % of control
